Structures can show the parent of a compound that is named as a salt.
How the values were obtained:
human PHD2 (PHD2181-417) = target: T1, human PHD2 (PHD2181-417) (Homo sapiens, UniProt Q9GZT9); assay: PHD enzymatic assay ([14C]-succinic acid production); type: biochemical; conditions: PHD2181-417, HIF-1α peptide 10 μM, average of results; read-out: Enzyme pIC50 (converted)
T1 construct: Smt (SUMO) tag (cleaved yes); made in house; host or cells: E. coli BL21 (pBAD vector)
Outline: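 Activity measured as [14C]-succinic acid formed from [5-14C]-2-oxoglutarate over 10 minutes, with peptide substrate at 10 μM, in Tris-HCl pH 7.5 buffer containing catalase, DTT and ascorbate. Unreacted oxoglutarate removed by DNP derivatisation; supernatant beta-counted.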

Hep-3B cells = assay: Cellular assay: erythropoietin secretion in Hep-3B cells; type: cell-based, human; conditions: Homo sapiens, Hep3B, 100 μM compound, 24 hours, percent of EPO secretion relative to assay control compound 7-[(4-Chloro-phenyl)-(5-methyl-isoxazol-3-ylamino)-methyl]-quinolin-8-ol, read-out: Cellular % EPO Stimulation
Outline: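 Hep-3B cells in DMEM with 10% FBS, treated 24 h after plating with compounds at 100 μM final for a further 24 h. Secreted EPO in supernatant measured by MSD electrochemiluminescence sandwich immunoassay with anti-EPO detection antibody.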

T1 sequence (Q9GZT9 181-417): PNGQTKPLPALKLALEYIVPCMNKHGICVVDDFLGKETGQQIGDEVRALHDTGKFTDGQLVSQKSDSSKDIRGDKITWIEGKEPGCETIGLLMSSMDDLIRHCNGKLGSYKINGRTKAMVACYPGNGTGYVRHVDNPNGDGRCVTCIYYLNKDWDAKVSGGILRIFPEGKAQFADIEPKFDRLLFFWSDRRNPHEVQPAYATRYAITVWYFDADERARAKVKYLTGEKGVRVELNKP

IC50 (human PHD2 (PHD2181-417)) | SMILES | Emax at 100 µM (Hep-3B cells)
20 nM | Cc1cc(C)cc(Oc2ccc3nc(-n4cc(C(=O)O)cn4)[nH]c(=O)c3c2)c1 [Example 98, 1-[6-(3,5-dimethyl-phenoxy)-4-oxo-3,4-dihydro-quinazolin-2-yl]-1H-pyrazole-4-carboxylic acid] | 85%
31.6 nM | O=C(O)c1cnn(-c2nc3ccc(-c4ccccc4Cl)cc3c(=O)[nH]2)c1 [Example 192, 1-[6-(2-Chloro-phenyl)-4-oxo-3,4-dihydro-quinazolin-2-yl]-1H-pyrazole-4-carboxylic acid] | 87%
50.1 nM | CN(C)c1ccc2nc(-n3cc(C(=O)O)cn3)[nH]c(=O)c2c1 [Example 125, 1-(6-Dimethylamino-4-oxo-3,4-dihydro-quinazolin-2-yl)-1H-pyrazole-4-carboxylic acid] | 19%
50.1 nM | Cc1ccc2c(=O)[nH]c(-n3cc(C(=O)O)cn3)nc2c1 [Example 10, 1-(7-Methyl-4-oxo-3,4-dihydro-quinazolin-2-yl)-1H-pyrazole-4-carboxylic acid] | 32%
31.6 nM | O=C(O)c1cnn(-c2nc3ccc(Cc4ccccc4)cc3c(=O)[nH]2)c1 [Example 105, 1-(6-benzyl-4-oxo-3,4-dihydro-quinazolin-2-yl)-1H-pyrazole-4-carboxylic acid] | 129%
20 nM | COc1cccc(Oc2ccc3nc(-n4cc(C(=O)O)cn4)[nH]c(=O)c3c2)c1 [Example 31, 1-[6-(3-Methoxy-phenoxy)-4-oxo-3,4-dihydro-quinazolin-2-yl]-1H-pyrazole-4-carboxylic acid] | 129%
39.8 nM | Cc1cccc(Oc2ccc3nc(-n4cc(C(=O)O)cn4)[nH]c(=O)c3c2)c1 [Example 36, 1-(4-Oxo-6-m-tolyloxy-3,4-dihydro-quinazolin-2-yl)-1H-pyrazole-4-carboxylic acid] | 22%
20 nM | O=C(O)c1cnn(-c2nc3ccc(Oc4c(Cl)cccc4Cl)cc3c(=O)[nH]2)c1 [Example 38, 1-[6-(2,6-Dichloro-phenoxy)-4-oxo-3,4-dihydro-quinazolin-2-yl]-1H-pyrazole-4-carboxylic acid] | 91%
20 nM | O=C(O)c1cnn(-c2nc3cc(F)c(F)cc3c(=O)[nH]2)c1 [Example 5, 1-(6,7-Difluoro-4-oxo-3,4-dihydro-quinazolin-2-yl)-1H-pyrazole-4-carboxylic acid, trifluoroacetate salt] | 21%
50.1 nM | O=C(O)c1cnn(-c2nc3cc(Br)ccc3c(=O)[nH]2)c1 [Example 134, 1-(7-Bromo-4-oxo-3,4-dihydro-quinazolin-2-yl)-1H-pyrazole-4-carboxylic acid] | 18%
126 nM | CC(C)c1ccc2c(=O)[nH]c(-n3cc(C(=O)O)cn3)nc2c1 [Example 146, 1-(7-Isopropyl-4-oxo-3,4-dihydro-quinazolin-2-yl)-1H-pyrazole-4-carboxylic acid] | 16%
25.1 nM | O=C(O)c1cnn(-c2nc3ccc(Oc4cc(Cl)ccc4Cl)cc3c(=O)[nH]2)c1 [Example 40, 1-[6-(2,5-Dichloro-phenoxy)-4-oxo-3,4-dihydro-quinazolin-2-yl]-1H-pyrazole-4-carboxylic acid] | 77%
31.6 nM | CS(=O)(=O)Nc1ccc2nc(-n3cc(C(=O)O)cn3)[nH]c(=O)c2c1 [Example 170, 1-(6-Methanesulfonylamino-4-oxo-3,4-dihydro-quinazolin-2-yl)-1H-pyrazole-4-carboxylic acid] | 15%
31.6 nM | Cc1cccc(C)c1C(=O)Nc1ccc2nc(-n3cc(C(=O)O)cn3)[nH]c(=O)c2c1 [Example 166, 1-[6-(2,6-Dimethyl-benzoylamino)-4-oxo-3,4-dihydro-quinazolin-2-yl]-1H-pyrazole-4-carboxylic acid] | 11%
31.6 nM | O=C(O)c1cnn(-c2nc3cc(Cc4ccccc4)ccc3c(=O)[nH]2)c1 [Example 136, 1-(7-Benzyl-4-oxo-3,4-dihydro-quinazolin-2-yl)-1H-pyrazole-4-carboxylic acid] | 23%
158 nM | CCOc1ccc2c(=O)[nH]c(-n3cc(C(=O)O)cn3)nc2c1 [Example 152, 1-(7-Ethoxy-4-oxo-3,4-dihydro-quinazolin-2-yl)-1H-pyrazole-4-carboxylic acid] | 38%
20 nM | CCC(C)c1ccc2nc(-n3cc(C(=O)O)cn3)[nH]c(=O)c2c1 (stereo not drawn) [Example 120, 1-(6-sec-Butyl-4-oxo-3,4-dihydro-quinazolin-2-yl)-1H-pyrazole-4-carboxylic acid] | 68%
158 nM | O=C(O)c1cnn(-c2nc3ccc4[nH]ccc4c3c(=O)[nH]2)c1 [Example 23, 1-(1-Oxo-2,7-dihydro-1H-pyrrolo[3,2-f]quinazolin-3-yl)-1H-pyrazole-4-carboxylic acid] | 33%
398 nM | CC(C)(C)c1ccc2c(=O)[nH]c(-n3cc(C(=O)O)cn3)nc2c1 [Example 147, 1-(7-tert-Butyl-4-oxo-3,4-dihydro-quinazolin-2-yl)-1H-pyrazole-4-carboxylic acid] | 11%
251 nM | CC(C)c1cccc2c(=O)[nH]c(-n3cc(C(=O)O)cn3)nc12 [Example 114, 1-(8-Isopropyl-4-oxo-3,4-dihydro-quinazolin-2-yl)-1H-pyrazole-4-carboxylic acid] | 16%

Further lines, the compound ahead of its results:

SMILES | IC50 (human PHD2 (PHD2181-417)) | Emax at 100 µM (Hep-3B cells)
Cc1cc2nc(-n3cc(C(=O)O)cn3)[nH]c(=O)c2cc1Oc1cccc(-c2ccccc2)c1 [Example 91, 1-[6-(biphenyl-3-yloxy)-7-methyl-4-oxo-3,4-dihydro-quinazolin-2-yl]-1H-pyrazole-4-carboxylic acid] | 25.1 nM | 75%
O=C(O)c1cnn(-c2nc3c(Sc4ccccc4)cccc3c(=O)[nH]2)c1 [Example 113, 1-(4-Oxo-8-phenylsulfanyl-3,4-dihydro-quinazolin-2-yl)-1H-pyrazole-4-carboxylic acid] | 200 nM | 17%
O=C(O)c1cnn(-c2nc3c4c(ccc3c(=O)[nH]2)CCC4)c1 [Example 141, 1-(6-Oxo-2,3,6,7-tetrahydro-1H-7,9-diaza-cyclopenta[a]naphthalen-8-yl)-1H-pyrazole-4-carboxylic acid] | 501 nM | 25%
O=C(O)c1cnn(-c2nc3ccc(Oc4ccc5ccccc5c4)cc3c(=O)[nH]2)c1 [Example 43, 1-[6-(Naphthalen-2-yloxy)-4-oxo-3,4-dihydro-quinazolin-2-yl]-1H-pyrazole-4-carboxylic acid] | 25.1 nM | 76%
O=C(O)c1cnn(-c2nc3cc(Cl)cc(Cl)c3c(=O)[nH]2)c1 [Example 132, 1-(5,7-Dichloro-4-oxo-3,4-dihydro-quinazolin-2-yl)-1H-pyrazole-4-carboxylic acid] | 126 nM | 16%
COc1ccc(Sc2cc3c(=O)nc(-n4cc(C(=O)O)cn4)[nH]c3cc2Cl)cc1OC [Example 26, 1-[7-Chloro-6-(3,4-dimethoxy-phenylsulfanyl)-4-oxo-1,4-dihydro-quinazolin-2-yl]-1H-pyrazole-4-carboxylic acid] | 31.6 nM | 55%
O=C(O)c1cnn(-c2nc3cc(F)c(Oc4ccc5c(c4)CCC5)cc3c(=O)[nH]2)c1 [Example 58, 1-[7-Fluoro-6-(indan-5-yloxy)-4-oxo-3,4-dihydro-quinazolin-2-yl]-1H-pyrazole-4-carboxylic acid] | 31.6 nM | 62%
O=C(O)c1cnn(-c2nc3cc(F)c(Oc4c(Cl)cccc4Cl)c(F)c3c(=O)[nH]2)c1 [Example 101, 1-[6-(2,6-dichloro-phenoxy)-5,7-difluoro-4-oxo-3,4-dihydro-quinazolin-2-yl]-1H-pyrazole-4-carboxylic acid] | 25.1 nM | 24%
O=C(O)c1cnn(-c2nc3cc4c(cc3c(=O)[nH]2)OCCO4)c1 [Example 139, 1-(4-Oxo-3,4,7,8-tetrahydro-[1,4]dioxino[2,3-g]quinazolin-2-yl)-1H-pyrazole-4-carboxylic acid] | 35.5 nM | 15%
O=C(O)c1cnn(-c2nc3cc(Cl)c(Oc4ccc(Cl)cc4)cc3c(=O)[nH]2)c1 [Example 48, 1-[7-Chloro-6-(4-chloro-phenoxy)-4-oxo-3,4-dihydro-quinazolin-2-yl]-1H-pyrazole-4-carboxylic acid] | 31.6 nM | 51%
O=C(O)c1cnn(-c2nc3cc(F)c(Oc4cccc5ccccc45)cc3c(=O)[nH]2)c1 [Example 57, 1-[7-Fluoro-6-(naphthalen-1-yloxy)-4-oxo-3,4-dihydro-quinazolin-2-yl]-1H-pyrazole-4-carboxylic acid] | 20 nM | 135%
COc1cc(Oc2ccc3nc(-n4cc(C(=O)O)cn4)[nH]c(=O)c3c2)cc(OC)c1OC [Example 28, 1-[4-Oxo-6-(3,4,5-trimethoxy-phenoxy)-3,4-dihydro-quinazolin-2-yl]-1H-pyrazole-4-carboxylic acid] | 20 nM | 9%
COc1cc2nc(-n3cc(C(=O)O)cn3)[nH]c(=O)c2cc1Oc1ccccc1 [Example 62, 1-(7-Methoxy-4-oxo-6-phenoxy-3,4-dihydro-quinazolin-2-yl)-1H-pyrazole-4-carboxylic acid] | 39.8 nM | 7%

Source: US8937078B2, “Quinazolinones as prolyl hydroxylase inhibitors” (Janssen Pharmaceutica NV, priority 2009, dated 2015)
